From the NIST ThermoML archive (doi:10.1021/je300134c)

Experiments:
[1] = Liquid; for speed of sound: Sing-around technique in a fixed-path interferometer; for mass density: Vibrating tube method
[2] = xn = mol fraction of the nth substance listed; settings: 101 kPa, Liquid, x2 = 0; for mass density: Vibrating tube method; for speed of sound: Sing-around technique in a fixed-path interferometer

CCCC[n+]1ccn(CC)c1.O=S(=O)([O-])C(F)(F)F
[1], 101.33 kPa
Settings | mass density [kg/m3] | speed of sound [m/s]
278.15 K | 1278.02 | 1420.6
288.15 K | 1269.97 | 1396.3
298.15 K | 1262.21 | 1373.1
308.15 K | 1254.44 | 1350.6
318.15 K | 1246.71 | 1328.6
328.15 K | 1239.01 | 1307.1
338.15 K | 1231.35 | 1286.1

CCCC[N+]1(C)CCCC1.O=S(=O)([O-])C(F)(F)F [1-butyl-1-methylpyrrolidinium trifluoromethanesulfonate]
[1], 101.33 kPa
Settings | mass density [kg/m3] | speed of sound [m/s]
278.15 K | 1267.23 | 1513.5
288.15 K | 1259.74 | 1486.1
298.15 K | 1252.26 | 1461.4
308.15 K | 1245.09 | 1437.8
318.15 K | 1237.94 | 1414.9
328.15 K | 1230.81 | 1392.7
338.15 K | 1223.73 | 1371.1

CCCCn1cc[n+](C)c1.O=S(=O)([O-])C(F)(F)F [1-butyl-3-methylimidazolium trifluoromethanesulfonate]
[1], 101.33 kPa
Settings | mass density [kg/m3] | speed of sound [m/s]
288.15 K | 1304.56 | 1416
298.15 K | 1296.67 | 1393
308.15 K | 1288.78 | 1370.7
318.15 K | 1280.95 | 1349
328.15 K | 1273.16 | 1327.8
338.15 K | 1265.44 | 1307

O [water]
[1], 101 kPa
Settings | mass density [kg/m3] | speed of sound [m/s]
278.15 K | 999.99 | –
318.15 K | – | 1536.8
328.15 K | 985.7 | 1547.7
338.15 K | 980.56 | 1553.6

O [water] + CCCC[N+]1(C)CCCC1.O=S(=O)([O-])C(F)(F)F
[2]
Settings | mass density [kg/m3] | speed of sound [m/s]
278.15 K | 999.99 | –
318.15 K | – | 1536.8
328.15 K | 985.7 | 1547.7
338.15 K | 980.56 | 1553.6

O [water] + CCCC[n+]1ccn(CC)c1.O=S(=O)([O-])C(F)(F)F
[2]
Settings | mass density [kg/m3] | speed of sound [m/s]
278.15 K | 999.99 | –
318.15 K | – | 1536.8
328.15 K | 985.7 | 1547.7
338.15 K | 980.56 | 1553.6

O [water] + CCCCn1cc[n+](C)c1.O=S(=O)([O-])C(F)(F)F
[2]
Settings | mass density [kg/m3] | speed of sound [m/s]
318.15 K | – | 1536.8
328.15 K | 985.7 | 1547.7
338.15 K | 980.56 | 1553.6
